This is an account of results in ChEMBL document CHEMBL1201862, “PubChem BioAssay data set” (2004).

As usually defined, the GI50 is the concentration giving 50% growth inhibition.

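Dose response: 5 concentrations. Exposure: 48 h. Format: 96-well plates. Endpoint: linear interpolation; highest concentration if not reached. GI50 is the concentration that inhibits growth by half.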 The source made the active and inactive calls. No stated cut-off is given here; in the data, active = GI50 up to about 1.1 µM and inactive = higher. Some results are limits rather than exact numbers.

Some test systems named below: HT-29; SK-MEL-5; HCC 2998; UACC-62; HL-60; MDA-N; A549; Hs-578T; MCF7; DU-145; SK-MEL-2; SK-OV-3; ACHN; EKVX; M14; NCI-H23; T47D; HCT-116; IGROV-1; SF-295.
Holding throughout (test): DTP human tumour cell line panel, 48 h

As for `CC(=O)OCCn1c(Cc2ccc(Cl)cc2)nn(C(C)=O)c1=O`, the GI50 in the assay on HT-29, with SK-MEL-5, with HCC 2998, in the assay with UACC-62, in the assay with HL-60 and in the assay on MDA-N was > 100 µM (inactive) in each case. Also, the GI50 with A549, in the assay with Hs-578T, in the assay on MCF7, with DU-145, with SK-MEL-2 and in the assay with SK-OV-3 was > 100 µM (inactive) throughout. In addition, the GI50 in the assay on ACHN, in the assay with EKVX, in the assay on M14, in the assay with NCI-H23, with T47D and in the assay on HCT-116 was > 100 µM (inactive) throughout. Also, the GI50 in the assay with IGROV-1 and in the assay on SF-295 was > 100 µM (inactive) each time.
Turning to `CC1=C(C(=O)NC(C)(C)C)CC(C(=O)NC(C)(C)C)C(C)N1` (stereo not given), the GI50 in the assay with HT-29, in the assay with SK-MEL-5, with HCC 2998, in the assay on UACC-62, in the assay with HL-60 and in the assay with MDA-N was > 100 µM (inactive) each time. Further, the GI50 in the assay with A549, in the assay on Hs-578T, in the assay with MCF7, with DU-145, in the assay with SK-MEL-2 and in the assay on SK-OV-3 was > 100 µM (inactive) throughout. Besides, the GI50 in the assay with ACHN, in the assay with EKVX, with M14, in the assay on NCI-H23, in the assay with T47D and in the assay with HCT-116 was > 100 µM (inactive) in each case. Moreover, the GI50 in the assay on IGROV-1 and in the assay on SF-295 was > 100 µM (inactive) each time.
With `CCOC(=O)/C=C(/C)Nc1nc2c(c(C(=O)OC)c1C#N)CCCC2`, the GI50 in the assay with HT-29 was > 100 µM (inactive); in the assay on SK-MEL-5, > 100 µM (inactive); with HCC 2998 it was > 100 µM (inactive); with UACC-62 it was > 100 µM (inactive); in the assay on HL-60, 69.3 µM (inactive); in the assay with MDA-N, > 100 µM (inactive). For the same molecule, the GI50 with A549, in the assay with Hs-578T, in the assay on MCF7, in the assay with DU-145, with SK-MEL-2 and in the assay with SK-OV-3 was > 100 µM (inactive) in each case. Moreover, the GI50 in the assay on ACHN was > 100 µM (inactive); in the assay with EKVX, 86.1 µM (inactive); in the assay on M14, > 100 µM (inactive); in the assay with NCI-H23 it was > 100 µM (inactive); in the assay on T47D, > 100 µM (inactive); in the assay with HCT-116 it was > 100 µM (inactive). In addition, the GI50 in the assay on IGROV-1 and in the assay with SF-295 was > 100 µM (inactive) in each case.
Regarding `C#Cc1cc(Br)c(OC(=O)C(C)(C)C)c(-c2cc(C#C)cc(Br)c2OC(=O)C(C)(C)C)c1`, the GI50 is 22.1 µM (inactive) in the assay on HT-29; 37.6 µM (inactive) with SK-MEL-5; 24.4 µM (inactive) in the assay on HCC 2998; 81.5 µM (inactive) with UACC-62; 6.98 µM (inactive) in the assay on HL-60; 31.8 µM (inactive) in the assay with MDA-N. The GI50 in the assay on A549 is 31.8 µM (inactive); in the assay on Hs-578T, 53.6 µM (inactive); with MCF7, 26.7 µM (inactive); in the assay on DU-145, 62.4 µM (inactive); with SK-MEL-2 it was 49 µM (inactive); in the assay on SK-OV-3, > 100 µM (inactive). For the same molecule, the GI50 in the assay with ACHN is 21.4 µM (inactive); with EKVX it was 31.2 µM (inactive); in the assay with M14 it was 43.7 µM (inactive); in the assay on NCI-H23 it was 30.5 µM (inactive); with T47D, 18.3 µM (inactive); with HCT-116 it was 21 µM (inactive). The values for the GI50 in the assay with IGROV-1 and in the assay on SF-295 were 76.9 µM (inactive) and 30.5 µM (inactive), respectively.
With `O=[N+]([O-])/C(Cl)=C(/C(Cl)=C(Cl)Cl)N1CCOCC1`, the GI50 in the assay with HT-29 is 3.4 µM (inactive); in the assay with SK-MEL-5, 1.65 µM (inactive); with HCC 2998, 3.09 µM (inactive); with UACC-62, 1.92 µM (inactive); in the assay with HL-60 it was 2.28 µM (inactive); in the assay on MDA-N, 2.32 µM (inactive). Moreover, the GI50 with A549 was 5.73 µM (inactive); with Hs-578T it was 3.8 µM (inactive); in the assay on MCF7, 1.12 µM (active); in the assay on DU-145, 13.7 µM (inactive); in the assay with SK-MEL-2 it was 2.12 µM (inactive); with SK-OV-3, 13.8 µM (inactive). The GI50 is 6.01 µM (inactive) in the assay on ACHN; 6.53 µM (inactive) in the assay with EKVX; 2.36 µM (inactive) with M14; 2.24 µM (inactive) in the assay with NCI-H23; 2.94 µM (inactive) in the assay on T47D; 2.44 µM (inactive) in the assay on HCT-116. The GI50 was 1.92 µM (inactive) with IGROV-1 and 11.5 µM (inactive) in the assay with SF-295.
Consider `COc1c2c(c3c(c1CCC(=O)O)OC(C)(C)C=C3)OC(C)(C)C=C2`, for which the GI50 in the assay with HT-29 is > 100 µM (inactive); with SK-MEL-5, 65.2 µM (inactive); in the assay with HCC 2998 it was > 100 µM (inactive); in the assay with UACC-62, > 100 µM (inactive); in the assay with HL-60, 50.8 µM (inactive); in the assay on MDA-N it was 31.4 µM (inactive). For the same molecule, the GI50 in the assay with A549 is 54.5 µM (inactive); in the assay on Hs-578T, 83.8 µM (inactive); in the assay on MCF7, > 100 µM (inactive); in the assay on DU-145, > 100 µM (inactive); in the assay with SK-MEL-2, > 100 µM (inactive); in the assay with SK-OV-3, > 100 µM (inactive). Also, the GI50 is > 100 µM (inactive) with ACHN; 74.3 µM (inactive) in the assay with EKVX; > 100 µM (inactive) in the assay on M14; > 100 µM (inactive) in the assay with NCI-H23; > 100 µM (inactive) in the assay with T47D; 94.8 µM (inactive) in the assay with HCT-116. The GI50 with IGROV-1 and in the assay on SF-295 was > 100 µM (inactive) in each case.
For the molecule `COC1(OC)N=C(N)C2(C#N)C(c3ccccc3)NC3=C(CCC3)C12C#N` (stereo not given), the GI50 in the assay with HT-29, in the assay on SK-MEL-5, with HCC 2998, in the assay on UACC-62, in the assay with HL-60 and in the assay on MDA-N was > 100 µM (inactive) each time. In addition, the GI50 with A549, in the assay with Hs-578T, in the assay with MCF7, in the assay with DU-145, with SK-MEL-2 and in the assay on SK-OV-3 was > 100 µM (inactive) each time. The GI50 in the assay on ACHN, in the assay with EKVX, in the assay on M14, in the assay on NCI-H23, in the assay on T47D and in the assay on HCT-116 was > 100 µM (inactive) in each case. For the same molecule, the GI50 in the assay with IGROV-1 and with SF-295 was > 100 µM (inactive) in each case.
As for `Oc1cc(-c2ccccc2)nc2cc3c(cc12)OCO3`, the GI50 in the assay with HT-29 was 7.18 µM (inactive); in the assay with SK-MEL-5 it was 3.52 µM (inactive); in the assay with HCC 2998, 15.6 µM (inactive); in the assay with UACC-62, 5.52 µM (inactive); in the assay on HL-60, 4.11 µM (inactive); in the assay on MDA-N, 4.11 µM (inactive). Moreover, the GI50 in the assay with A549 is 14 µM (inactive); with Hs-578T, 24.5 µM (inactive); in the assay with MCF7 it was 36.8 µM (inactive); in the assay with DU-145, 79.4 µM (inactive); in the assay with SK-MEL-2 it was 19.5 µM (inactive); in the assay on SK-OV-3 it was 6.92 µM (inactive). Moreover, the GI50 with ACHN is 15.2 µM (inactive); in the assay with EKVX it was 15.6 µM (inactive); in the assay with M14, 7.36 µM (inactive); in the assay on NCI-H23, 8.55 µM (inactive); in the assay with T47D it was 42.1 µM (inactive); in the assay with HCT-116, 8 µM (inactive). In addition, the results for the GI50 in the assay with IGROV-1 and in the assay with SF-295 were 13.6 µM (inactive) and 8.57 µM (inactive), respectively.
Regarding `O=c1cc(-c2ccc(O)c(O)c2)oc2cc(O[C@H]3O[C@H](CO)[C@@H](O)[C@H](O)[C@H]3O)cc(O)c12`, the GI50 was 67.8 µM (inactive) with HT-29; 70.1 µM (inactive) with SK-MEL-5; > 100 µM (inactive) in the assay with HCC 2998; 93.1 µM (inactive) with UACC-62; 37.7 µM (inactive) in the assay on HL-60; > 100 µM (inactive) in the assay on MDA-N. For the same molecule, the GI50 with A549 is 79.8 µM (inactive); in the assay with Hs-578T, 29.3 µM (inactive); in the assay on MCF7 it was > 100 µM (inactive); with DU-145 it was > 100 µM (inactive); in the assay with SK-MEL-2, 99.8 µM (inactive); in the assay with SK-OV-3, > 100 µM (inactive). Besides, the GI50 in the assay on ACHN was 65.5 µM (inactive); in the assay with EKVX, 56.6 µM (inactive); in the assay with M14, > 100 µM (inactive); in the assay with NCI-H23, > 100 µM (inactive); with T47D, 89.1 µM (inactive); in the assay with HCT-116, 28.8 µM (inactive). The GI50 in the assay with IGROV-1 and in the assay with SF-295 was > 100 µM (inactive) each time.
Take `O=C(NC(CO)CO)c1ccc2cc(C(=O)N3CC(CCl)c4ccc([N+](=O)[O-])cc43)[nH]c2c1` (stereo not given): the GI50 with HT-29, in the assay with SK-MEL-5, in the assay with HCC 2998, in the assay with UACC-62, in the assay on HL-60 and with MDA-N was > 100 µM (inactive) each time. In addition, the GI50 in the assay on A549, in the assay on Hs-578T, in the assay with MCF7, with DU-145, with SK-MEL-2 and in the assay with SK-OV-3 was > 100 µM (inactive) in each case. Moreover, the GI50 in the assay on ACHN was > 100 µM (inactive); in the assay on EKVX, > 100 µM (inactive); in the assay with M14, > 100 µM (inactive); in the assay with NCI-H23, > 100 µM (inactive); in the assay with T47D, 0.619 µM (active); with HCT-116, > 100 µM (inactive). The GI50 in the assay with IGROV-1 and with SF-295 was > 100 µM (inactive) each time.
